Values of other authors in patent US20060035976A1, “Methods of preventing headaches with norepinephrine precursors” (priority 2002, published 2006).

What was measured:
migraine attacks = details: 100 mg/day; person with Parkinson's disease, concurrently on L-DOPA, benserazide and amantadine
pain = details: 100 mg; including a patient experiencing a cluster headache

time that increased plasma levels of DOPS and NE remain (after oral administration of DOPS) | time of peak NE levels (after oral ingestion of DOPS) | time of peak plasma levels of DOPS (after oral ingestion of DOPS) | Structure (SMILES) | specific uptake of DOPS (microvessel preparations) | migraine attacks (patient report) (migraine attacks) | analgesic effects (pain)
at least 12 hours | 5 h | 3 h | N[C@H](C(=O)O)[C@H](O)c1ccc(O)c(O)c1 [DOPS, Threo-3-(3,4-dihydroxyphenyl)serine] | Specific uptake of DOPS has also been demonstrated |  | 
 |  |  | N[C@H](C(=O)O)[C@H](O)c1ccc(O)c(O)c1 [L-DOPS] |  | migraine attacks were resolved | alleged analgesic effects
